The test system of test [1] is Spodoptera eridiana. Kind of test: Southern armyworm foliar spray test on lima bean plants, mortality. In kind it is in vivo. The following applies: 96 h, 2nd instar larvae, lima bean foliage sprayed, assessed 4 days after treatment, read-out: mortality in comparison with untreated controls. The procedure:
The active compounds were formulated in cyclohexanone as a 10,000 ppm solution supplied in tubes. The tubes were inserted into an automated electrostatic sprayer equipped with an atomizing nozzle and they served as stock solutions for which lower dilutions were made in 50% acetone:50% water (v/v). A nonionic surfactant (Kinetic) was included in the solution at a volume of 0.01% (v/v).
Lima bean plants (variety Sieva) were grown 2 plants to a pot and selected for treatment at the 1st true leaf stage. Test solutions were sprayed onto the foliage by an automated electrostatic plant sprayer equipped with an atomizing spray nozzle. The plants were dried in the sprayer fume hood and then removed from the sprayer. Each pot was placed into perforated plastic bags with a zip closure. About 10 to 11 armyworm larvae were placed into the bag and the bags zipped closed. Test plants were maintained in a growth room at about 25° C. and about 20-40% relative humidity for 4 days, avoiding direct exposure to fluorescent light (24 hour photoperiod) to prevent trapping of heat inside the bags. Mortality and reduced feeding were assessed 4 days after treatment, compared to untreated control plants.

Test [2] concerns Plutella xylostella. Kind of test: Diamond backmoth leaf-dip test on cabbage leaves, mortality. In kind it is in vivo. To be noted: 3rd instar larvae, cabbage leaves dipped, recorded 72 hours after treatment, read-out: mortality in comparison with untreated controls. The method, then:
The active compound was dissolved at the desired concentration in a mixture of 1:1 (vol:vol) distilled water: aceteone. Surfactant (Alkamuls® EL 620) was added at a rate of 0.1% (vol/vol). The test solution was prepared at the day of use.
Leaves of cabbage were dipped in test solution and air-dried. Treated leaves were placed in petri dishes lined with moist filter paper and inoculated with ten 3rd instar larvae. Mortality was recorded 72 hours after treatment. Feeding damages were also recorded using a scale of 0-100%.

1 molecule from patent publication US20140243197A1, “CARBAMOYLMETHOXY- AND CARBAMOYLMETHYLTHIO- AND CARBAMOYLMETHYLAMINO BENZAMIDES FOR COMBATING INVERTEBRATE PESTS” (BASF SE, priority 2011, published 2014) can be followed below.

Usually mortality stands for the percentage killed. For `CNC(=O)CONC(=O)c1cc(Cl)cc(C)c1NC(=O)c1cnn(CC(F)(F)F)c1-c1ncccc1Cl` [Compound 1-1, 5-(3-chloro-pyridin-2-yl)-1-(2,2,2-trifluoro-ethyl)-1H-pyrazole-4-carboxylic acid (4-chloro-2-methyl-6-methylcarbamoylmethoxycarbamoyl-phenyl)-amide], the mortality at 500 ppm in test [1] and in test [2] was 100% each time.
